Data reported in US5786324A, “Synthetic peptides with bactericidal activity and endotoxin neutralizing activity for gram negative bacteria and methods for their use” (priority 1994, dated 1998).
Like-named read-outs stand apart in the source and are kept apart here. No end group written: not given here.

What was measured:
[1] = tested on: Human lung fibroblasts; experiment: Toxicity for human lung fibroblasts, trypan blue exclusion; type: cell-based; details: 30 minutes; for Percent Viability DMEM: DMEM plus 10% FCS; for Percent Viability PBS: pH 7.4
Method: The synthetic peptides were assayed for toxicity to cultured eukaryotic cells. Human lung fibroblasts were grown in monolayers in Dulbecco's Modified Eagles' Medium (DMEM) with 10% fetal calf serum (FCS) and originated as primary cultures of lung mesenchymal cells. The cells were trypsinized, washed with either DMEM plus FCS or phosphate-buffered saline (PBS), pH 7.4, and incubated with peptide at a final cell concentration of 1×10^7 /ml. Nine volumes of cell suspension were diluted with one volume of 0.4% trypan blue and the cells were counted with a hemocytometer, while also determining the fraction of cells which were increased in permeability to dye. There was no significant loss of cell number due to exposure of the fibroblasts to peptide.
^a Viability was determined by trypan blue exclusion following
incubation of cells with peptide for 30 minutes in DMEM plus 10% FCS or i

[2] = tested on: E. coli B; experiment: Bactericidal assay, E. coli B; type: cell-based
Method: (§1) The synthetically produced peptides were assayed for bactericidal activity against Pseudomonas aeruginosa, type 1, P. cepacia ATCC 25608, E. coli B, and Staphylococcus aureus 502A by standard methods.
(§2) Pseudomonas aeruginosa type 1 is a clinical isolate maintained in the laboratory since 1972. The isolate remains a smooth strain and was serotyped by the scheme of Homma. Homma, Jpn. J. Exp. Med., 46:329 (1976). A rough strain E. coli B and S. aureus 502A were obtained from Paul Quie, University of Minnesota. The characteristics of the S. aureus strain have been described in Shinefield et al., Amer. J. Dis. Chil., 105:646 (1963). Pseudomonas cepacia ATCC 25608 was purchased from the American Type Culture Collection in 1980. S. aureus and E. coli were maintained on nutrient agar plates and the Pseudomonas strains were maintained on blood agar plates.
(§3) Pyrogen-free solutions were used throughout this assay and all methods which follow. Log phase bacteria were prepared from a culture in brain heart infusion broth as previously described except that bacteria were washed and resuspended in saline with adjustment to an optical density at 650 nm which would yield 3×10^8 CFU/ml. Bacteria were then diluted 1:10 in 0.08M citrate phosphate buffer, pH 5.6 or pH 7.0, for use in the assay. S. aureus rapidly lost viability in the pH 5.6 buffer and was studied only at pH 7.0. Bactericidal activity was determined by dose response and where an LD50 is indicated, it was determined by linear regression.

[3] = tested on: Pseudomonas aeruginosa type 1; type: cell-based; details: for Effective Dose Bactericidal pH 5.6 P. aeruginosa Molar Concentration: Table 5
Method: Bactericidal activity can be evaluated against a variety of bacteria such as Pseudomonas spp including aeruginosa and P. cepacia, E. coli B, and Staphylococcus aureus. The preferred organism is P. aeruginosa. Bactericidal activity is determined by identifying the effective dose for killing as the molar concentration of the peptide which results in at least a 60% killing of the bacteria, as determined by standard methods. Preferably, the peptide has an effective dose at a concentration of about 1×10^-4 M to about 1×10^-10 M, and more preferably 1×10^-7 M to 1×10^-9M . […] The effective dose for bactericidal activity of B/PI is seen at about […] . Bactericidal activity can also be determined by calculating a lethal dose 50 (LD50) using standard methods. The LD50 is that amount of peptide or protein that kills 50% of the bacteria when measured using standard dose response methods. A bactericidal peptide preferably has an LD50 of about 10^-4 M to about 10^-9 M , more preferably about 10^-7 to 10^-9 M .
as §1, §2, §3

[4] = tested on: Staphylococcus aureus 502A; type: cell-based
Method: as §1, §2, §3

[5] = tested on: E. coli 055: B5 LPS; experiment: Limulus amoebocyte lysate assay, neutralization of endotoxin; type: biochemical; details: for Effective Dose Endotoxin Neutralization (Molar Concentration): Table 8, LAL
Excerpt: The peptide selected can also have endotoxin neutralizing activity. […] Endotoxin neutralizing activity can also be measured by calculating an inhibitory dose 50 […] using standard does response methods. An inhibitory dose 50 is that amount of peptide that can inhibit 50% of the activity of endotoxin. Endotoxin activity can also be measured by determining the amount of release of tumor necrosis factor alpha (TNFα) from a macrophage cell line or by evaluating the symptoms of shock in animals. Peptides preferably neutralized endotoxin at a molar concentration of about 1×10^-4 M to about 10^-8 M , more preferably about 10^-5 M to about 10^-6 M .
The ability of synthetic peptides to neutralize endotoxin was detected with the E-TOXATE kit manufactured by Sigma Chemicals, St. Louis, Mo. […] Peptide was incubated with LPS at room temperature for 10 minutes in 100 μl of a 1:2 dilution of pyrogen-free saline, pH 6.4. The reaction was started by addition of 100 μl of amoebocyte lysate and the final volume was 200 μl.
^a The dose of peptide required to inhibit clotting of LAL by 100%.
Each tube contained 0.04 endotoxin units of E. coli LPS.

[6] = tested on: P. cepacia ATCC 25608; experiment: Bactericidal assay, P. cepacia; type: cell-based, Pseudomonas cepacia; details: P. cepacia
Method: as §1, §2, §3

[7] = Table 7, dose required to inhibit clotting of LAL by 100%, 0.04 endotoxin units of E. coli LPS

CC(C)C[C@H](NC(=O)[C@H](Cc1ccccc1)NC(=O)[C@H](CCCNC(=N)N)NC(=O)[C@H](CCCCN)NC(=O)[C@H](CCC(N)=O)NC(=O)[C@H](C)NC(=O)[C@H](CCCCN)NC(=O)[C@H](Cc1c[nH]c2ccccc12)NC(=O)[C@@H](N)CCCCN)C(=O)N[C@@H](CCCCN)C(=O)O [Peptide 5, kwkaqkrflk]
Percent Viability DMEM ([1]; 1.5 × 10^-4 M): 98.0%
Percent Viability PBS ([1]; 1.5 × 10^-4 M): 89.4%
% Killing of 5 × 10^6 Bacteria ([2]; E. coli B, pH 5.6, 3.0 × 10^-5 M, listed as #90-99): 31%
% Killing of 5 × 10^6 Bacteria ([3]; type 1, 1.5e-5 M, pH 5.6): 75%
LD50 for P. aeruginosa ([3]; type 1, pH 5.6): 8.2 µM

EFYSENHHNPKWKAQKRFLK [Peptide 18, efysenhhnpkwkaqkrflk]
Percent Viability DMEM ([1]; 1.5 × 10^-4 M): 98.8%
Percent Viability PBS ([1]; 1.5 × 10^-4 M): 95.6%
% Killing of 5 × 10^6 Bacteria ([3]; type 1, 3.0e-5 M, pH 5.6): 79%

cefysenhhnp(g) [Peptide 3]
% Killing of 5 × 10^6 Bacteria ([4]; S. aureus, pH 7.0, 1.2 × 10^-4 M): 0%
% Killing of 5 × 10^6 Bacteria ([2]; E. coli, pH 5.6, 1.2 × 10^-4 M): 0%
% Killing of 5 × 10^6 Bacteria ([2]; E. coli, pH 7.0, 1.2 × 10^-4 M): 0%
peptide concentration which neutralized endotoxin (100% inhibition of LPS-induced gelation) ([5]; 0.04 endotoxin units of E. coli 055: B5 LPS): 120 µM
Effective Dose (μg/0.2 ml) [5, 7]: 34 μg/0.2 ml
Effective Dose M (× 10^-4) [5, 7]: 1.2 M (× 10^-4)
Effective Dose Endotoxin Neutralization (Molar Concentration) [5]: 120 µM
% Killing of 5 × 10^6 Bacteria ([6]; pH 5.6, 1.2 × 10^-4 M): 0%
% Killing of 5 × 10^6 Bacteria ([6]; pH 7.0, 1.2 × 10^-4 M): 0%
% Killing of 5 × 10^6 Bacteria ([3]; P. aeruginosa, pH 5.6, 1.2 × 10^-4 M): 0%
% Killing of 5 × 10^6 Bacteria ([3]; P. aeruginosa, pH 7.0, 1.2 × 10^-4 M): 0%
Effective Dose Bactericidal pH 5.6 P. aeruginosa Molar Concentration ([3]; pH 5.6): -- (not active at concentrations of 1.2 × 10^-4 M or less)

CC(C)C[C@H](NC(=O)[C@H](Cc1ccccc1)NC(=O)[C@H](CCCNC(=N)N)NC(=O)[C@H](CCCCN)NC(=O)[C@H](CCC(N)=O)NC(=O)[C@H](C)NC(=O)[C@H](CCCCN)NC(=O)[C@H](Cc1c[nH]c2ccccc12)NC(=O)[C@H](CCCCN)NC(=O)[C@@H](N)CS)C(=O)N[C@@H](CCCCN)C(=O)O [Peptide 2, ckwkaqkrflk]
Percent Viability DMEM ([1]; 1.5 × 10^-5 M): 98.4%
Percent Viability PBS ([1]; 1.5 × 10^-5 M): 94.7%
% Killing of 5 × 10^6 Bacteria ([4]; 502A, 3e-5 M, pH 7): 95%
% Killing of 5 × 10^6 Bacteria ([2]; E. coli B, pH 5.6, 1.5 × 10^-5 M, listed as C#90-99): 98%
% Killing of 5 × 10^6 Bacteria ([2]; E. coli, pH 7.0, 1.5 × 10^-5 M): 90%
% Killing of 5 × 10^6 Bacteria ([6]; pH 5.6, 1.5 × 10^-5 M): 80%
% Killing of 5 × 10^6 Bacteria ([6]; pH 7.0, 1.5 × 10^-5 M): 78%
% Killing of 5 × 10^6 Bacteria ([3]; type 1, 1.5e-6 M, pH 5.6): 83%

nanikisgkwkaqkrflkmsgnfdlsi [Peptide 22]
Effective Dose Endotoxin Neutralization (Molar Concentration) [5]: 30 µM
% Killing of 5 × 10^6 Bacteria ([3]; P. aeruginosa, pH 5.6, 6.0 × 10^-8 M): 74%
Effective Dose Bactericidal pH 5.6 P. aeruginosa Molar Concentration ([3]; pH 5.6): 6.0 × 10^-8 M

cnanikisgkwkaqkrflkmsgnfdlsic [Peptide 23]
Effective Dose Endotoxin Neutralization (Molar Concentration) [5]: 30 µM
% Killing of 5 × 10^6 Bacteria ([3]; P. aeruginosa, pH 5.6, 3 × 10^-7 M): 67%
Effective Dose Bactericidal pH 5.6 P. aeruginosa Molar Concentration ([3]; pH 5.6): 3 × 10^-7 M

anikisgkwk [Peptide 31]
Effective Dose Endotoxin Neutralization (Molar Concentration) [5]: 220 µM
% Killing of 5 × 10^6 Bacteria ([3]; P. aeruginosa, pH 5.6, 3.0 × 10^-5 M): 53%
Effective Dose Bactericidal pH 5.6 P. aeruginosa Molar Concentration ([3]; pH 5.6): 3.0 × 10^-5 M

kisgkwkaqk [Peptide 32]
Effective Dose Endotoxin Neutralization (Molar Concentration) [5]: 450 µM
% Killing of 5 × 10^6 Bacteria ([3]; P. aeruginosa, pH 5.6, 1.25 × 10^-4 M): 33%
Effective Dose Bactericidal pH 5.6 P. aeruginosa Molar Concentration ([3]; pH 5.6): 1.25 × 10^-4 M

flkmsgnfdl [Peptide 34]
Effective Dose Endotoxin Neutralization (Molar Concentration) [5]: 750 µM
Effective Dose Bactericidal pH 5.6 P. aeruginosa Molar Concentration ([3]; pH 5.6): -- (not active at concentrations of 1.2 × 10^-4 M or less)

kkkwfrlakq [Peptide 21]
Effective Dose Endotoxin Neutralization (Molar Concentration) [5]: -- (not active at concentrations of 4.5 × 10^-4 M or less)
% Killing of 5 × 10^6 Bacteria ([3]; P. aeruginosa, pH 5.6, 1.5 × 10^-5 M): 71%
Effective Dose Bactericidal pH 5.6 P. aeruginosa Molar Concentration ([3]; pH 5.6): 1.5 × 10^-5 M
bacterial killing activity compared with parent peptide (in words) ([3]; pH 5.6, P. aeruginosa): retained biological activity

ktkckflkkc [Peptide 25, reference compound]
Effective Dose Endotoxin Neutralization (Molar Concentration) [5]: -- (not active at concentrations of 4.5 × 10^-4 M or less)
% Killing of 5 × 10^6 Bacteria ([3]; P. aeruginosa, pH 5.6, 6.0 × 10^-6 M): 56%
Effective Dose Bactericidal pH 5.6 P. aeruginosa Molar Concentration ([3]; pH 5.6): 6.0 × 10^-6 M

CEFYSENHHNPKWKAQKRFLK [Peptide 17, cefysenhhnpkwkaqkrflk]
Percent Viability DMEM ([1]; 1.5 × 10^-5 M): 99.2%
Percent Viability PBS ([1]; 1.5 × 10^-5 M): 92.3%
% Killing of 5 × 10^6 Bacteria ([2]; E. coli B, pH 5.6, 3.0 × 10^-5 M): 71%
% Killing of 5 × 10^6 Bacteria ([3]; type 1, 3.0e-6 M, pH 5.6): 74%

kwkaqkrflkc [Peptide 20b]
Effective Dose Endotoxin Neutralization (Molar Concentration) [5]: -- (not active at concentrations of 4.5 × 10^-4 M or less)
% Killing of 5 × 10^6 Bacteria ([3]; P. aeruginosa, pH 5.6, 3.0 × 10^-6 M): 75%
Effective Dose Bactericidal pH 5.6 P. aeruginosa Molar Concentration ([3]; pH 5.6): 3.0 × 10^-6 M

qkrflkmsgn [Peptide 33]
Effective Dose Endotoxin Neutralization (Molar Concentration) [5]: 450 µM
Effective Dose Bactericidal pH 5.6 P. aeruginosa Molar Concentration ([3]; pH 5.6): -- (not active at concentrations of 1.2 × 10^-4 M or less)

kisgkwkaqkrflkmsgnf [Peptide 35]
Effective Dose Endotoxin Neutralization (Molar Concentration) [5]: 450 µM
neutralization of endotoxin in the LAL (in words) ([5]; highest concentration tested 4.5×10^-4 M): did not neutralize endotoxin
% Killing of 5 × 10^6 Bacteria ([3]; P. aeruginosa, pH 5.6, 1.5 × 10^-7 M): 58%
Effective Dose Bactericidal pH 5.6 P. aeruginosa Molar Concentration ([3]; pH 5.6): 1.5 × 10^-7 M

msgnfdlsie [Peptide 29]
Effective Dose Endotoxin Neutralization (Molar Concentration) [5]: 220 µM
Effective Dose Bactericidal pH 5.6 P. aeruginosa Molar Concentration ([3]; pH 5.6): -- (not active at concentrations of 1.2 × 10^-4 M or less)
